Assay results from US5610320A, “Sulfonamide phenyl substituted compounds” (Eisai Co., Ltd., priority 1990, dated 1997).
Values after ≈ are worked out from the molar mass of the structure shown.

Each molecule was assayed on KB cells (human nasopharyngeal cells) (assay: In vitro antineoplastic test on KB cells (MTT, 3 days)). Conditions: 72 h, KB cells in vitro, 37° C. for three days, MTT, read-out: IC50.
Assay type: cell-based
Description: In vitro antineoplastic test on KB cells (human nasopharyngeal cells):
1.25×10^3 (0.1 ml) of KB cells suspended in a RPMI 1640 medium (a product of Nissui Seiyaku Co., Ltd.) containing 20% of bovine fetus serum, penicillin (100 units/ml), streptomycin (100 μg/ml), mercaptoethanol (5×10^-5 M) and sodium pyruvate (1 mM) were placed in each hole of a 96-hole flat-bottom microplate and cultured in an incubator containing 5% of carbon dioxide at 37° C. for one day.
This concentration was the maximum one, which was subjected to two-fold serial dilution with 0.1% bovine fetus serum RPMI 1640 culture liquid containing 0.5% of dimethyl sulfoxide. It was added to the KB cells in each hole of the above-described culture plate in an amount of 0.1 ml and cultured in an incubator containing 5% of carbon dioxide at 37° C. for three days.
After the completion of the culture, 0.05 ml of MTT [3-(4,5-dimethylthiazol-2-yl)-2,5-diphenyltetrazolium bromide] solution (3.3 mg/ml) was added to each hole and the culture was conducted for an additional 1 h. The supernatant liquid was removed from each hole by suction and a formazan thus formed was dissolved in 0.1 ml of dimethyl sulfoxide. The absorbance at 540 nm was determined with a microplate reader to use as an index of a viable count. A percentage inhibition was calculated according to the following formula and the concentration of the test compound for 50% inhibition (IC50) was determined.
Percentage inhibition (%)=(C-T)/C×100
T: absorbance of the hole containing the test compound
C: absorbance of the hole containing no test compound

Point of comparison: `COc1ccc(S(=O)(=O)Nc2ccccc2Nc2ccccc2)cc1` [Example 58, N-(2-Anilinophenyl)-4-methoxybenzenesulfonamide], IC50 1.2 mg/L (≈ 3.39 µM). Against it:
- COCOc1ccc(Nc2ncccc2NS(=O)(=O)c2ccc(OC)cc2)cc1 [Example 5, 4-Methoxy-N-[2-[(4-methoxymethyloxyphenyl)amino]-3-pyridyl-]benzenesulfonamide] — 1.6-fold lower, 0.73 mg/L (≈ 1.76 µM)
- COc1ccc(S(=O)(=O)Nc2cccnc2Nc2ccc(C)cc2)cc1 [Example 8, 4-Methoxy-N-[2-[(4-methylphenyl)amino]-3-pyridyl]benzenesulfonamide] — within 1.5-fold, 0.89 mg/L (≈ 2.41 µM)
- COc1ccc(S(=O)(=O)Nc2cccnc2Nc2ccccc2F)cc1 [Example 9, N-[2-[(2-Fluorophenyl)amino]-3-pyridyl]-4-methoxybenzenesulfonamide] — 3.5-fold lower, 0.34 mg/L (≈ 0.911 µM)
- COc1ccc(S(=O)(=O)Nc2cccnc2Nc2cccc(F)c2)cc1 [Example 10, N-[2-[(3-Fluorophenyl)amino]-3-pyridyl]-4-methoxybenzenesulfonamide] — 5.7-fold lower, 0.21 mg/L (≈ 0.562 µM)
- COc1ccc(S(=O)(=O)Nc2cccnc2Nc2ccc(F)cc2)cc1 [Example 11, N-[2-[(4-Fluorophenyl)amino]-3-pyridyl]-4-methoxybenzenesulfonamide] — 3.6-fold lower, 0.33 mg/L (≈ 0.884 µM)
- COc1ccc(S(=O)(=O)Nc2cccnc2Nc2cccc(OC)c2)cc1 [Example 13, 4-Methoxy-N-[2-[(3-methoxyphenyl)amino]-3-pyridyl]benzenesulfonamide] — 2.2-fold higher, 2.6 mg/L (≈ 6.75 µM)
- COc1ccc(S(=O)(=O)Nc2cccnc2Nc2ccccc2OC)cc1 [Example 16, 4-Methoxy-N-[2-[(2-methoxyphenyl)amino]-3-pyridyl]benzenesulfonamide] — within 1.5-fold, 1.5 mg/L (≈ 3.89 µM)
- COc1ccc(S(=O)(=O)Nc2cccnc2Nc2cccc(C)c2)cc1 [Example 17, 4-Methoxy-N-[2-[(3-methylphenyl)amino]-3-pyridyl]benzenesulfonamide] — within 1.5-fold, 0.94 mg/L (≈ 2.54 µM)
- COc1ccc(S(=O)(=O)Nc2cccnc2Nc2ccccc2C)cc1 [Example 18, 4-Methoxy-N-[2-[2(2-methylphenyl)amino]-3-pyridyl]benzenesulfonamide] — 1.6-fold lower, 0.73 mg/L (≈ 1.98 µM)
- Nc1ccc(S(=O)(=O)Nc2cccnc2Nc2ccccc2)cc1 [Example 21, 4-Amino-N-(2-anilino-3-pyridyl)benzenesulfonamide] — within 1.5-fold, 1.1 mg/L (≈ 3.23 µM)
- CCOc1ccc(S(=O)(=O)Nc2cccnc2Nc2ccccc2)cc1 [Example 27, N-(2-Anilino-3-pyridyl)-4-ethoxybenzenesulfonamide] — within 1.5-fold, 1.4 mg/L (≈ 3.79 µM)
- COc1ccc(S(=O)(=O)Nc2cccnc2Nc2cccc(O)c2)cc1 [Example 34, N-[2-[(3-Hydroxyphenyl)amino]-3-pyridyl]-4-methoxybenzenesulfonamide] — 11-fold lower, 0.11 mg/L (≈ 0.296 µM)
- CCOc1ccc(Nc2ncccc2NS(=O)(=O)c2ccc(OC)cc2)cc1 [Example 35, N-[2-[(4-Ethoxyphenyl)amino]-3-pyridyl]-4-methoxybenzenesulfonamide] — 2.7-fold lower, 0.45 mg/L (≈ 1.13 µM)
- COc1ccc(S(=O)(=O)Nc2cccnc2Nc2ccc(O)c(C)c2)cc1 [Example 36, N-[2-[(4-hydroxy-3-methylphenyl)amino]-3-pyridyl]-4-methoxybenzenesulfonamide] — 1.7-fold lower, 0.72 mg/L (≈ 1.87 µM)
- CCOC(=O)c1ccc(Nc2ncccc2NS(=O)(=O)c2ccc(OC)cc2)cc1 [Example 37, Ethyl 4-[[3-(4-methoxybenzenesulfonamido)-2-pyridyl]amino]benzoate] — within 1.5-fold, 1.3 mg/L (≈ 3.04 µM)
- COc1ccc(S(=O)(=O)Nc2cccnc2Nc2ccc(Oc3ccccc3)cc2)cc1 [Example 40, 4-Methoxy-N-[2-[(4-phenoxyphenyl)amino]-3-pyridyl]benzenesulfonamide] — 1.8-fold higher, 2.1 mg/L (≈ 4.69 µM)
- COc1ccc(S(=O)(=O)Nc2cccnc2Nc2ccc(Cl)cc2)cc1 [Example 42, N-[2-[(4-Chlorophenyl)amino]-3-pyridyl]-4-methoxybenzenesulfonamide] — 2-fold lower, 0.59 mg/L (≈ 1.51 µM)
- COc1ccc(S(=O)(=O)Nc2cccnc2Nc2ccccc2O)cc1 [Example 43, N-[2-[(2-Hydroxyphenyl)amino]-3-pyridyl]-4-methoxybenzenesulfonamide] — 4.6-fold lower, 0.26 mg/L (≈ 0.7 µM)
- COc1ccc(S(=O)(=O)Nc2c(Nc3ccccc3)ncnc2OC)cc1 [Example 47, N-(4-Anilino-6-methoxy-5-pyrimidyl)-4-methoxybenzenesulfonamide] — 2.2-fold higher, 2.6 mg/L (≈ 6.73 µM)
- COc1ccc(S(=O)(=O)Nc2ccc(OC)nc2Nc2ccccc2)cc1 [Example 54, N-(2-Anilino-6-methoxy-3-pyridyl)-4-methoxybenzene sulfonamide] — 2.2-fold lower, 0.54 mg/L (≈ 1.4 µM)
- COc1ccc(S(=O)(=O)Nc2ccccc2Nc2ncccn2)cc1 [Example 57, 4-Methoxy-N-[2-[(2-pyrimidyl)amino]phenyl]benzenesulfonamide] — 7.1-fold lower, 0.17 mg/L (≈ 0.477 µM)
- COc1ccc(S(=O)(=O)Nc2cccnc2Nc2ccc(OC(=O)c3ccccc3)cc2)cc1 [Example 59, N-[2-[(4-Benzoyloxyphenyl)amino]-3-pyridyl]-4-methoxybenzenesulfonamide] — 6.7-fold lower, 0.18 mg/L (≈ 0.379 µM)
- COc1ccc(S(=O)(=O)Nc2cccnc2Nc2ccc(OC(=O)CN)cc2)cc1.Cl.Cl [Example 61, N-[2-[[4-(Aminoacetyloxy)phenyl]amino]-3-pyridyl]-4-methoxybenzenesulfonamide dihydrochloride] — within 1.5-fold, 0.83 mg/L
- COc1ccc(Nc2ncccc2N(C)S(=O)(=O)c2ccc(OC)cc2)cc1 [Example 62, 4-Methoxy-N-[2-[(4-methoxyphenyl)amino]-3-pyridyl]-N-methylbenzenesulfonamide] — 2.3-fold lower, 0.53 mg/L (≈ 1.33 µM)
- COc1ccc(S(=O)(=O)Nc2cccnc2Nc2ccc(OC(=O)c3ccccc3N)cc2)cc1 [Example 63, N-[2-[[4-(2-Aminobenzoyloxy)phenyl]amino]-3-pyridyl]-4-methoxybenzenesulfonamide] — 6-fold lower, 0.2 mg/L (≈ 0.408 µM)
- COc1ccc(S(=O)(=O)Nc2cccnc2Nc2ccc(OP(=O)(O)O)cc2)cc1 [Example 64, 4-[[3-(4-Methoxybenzenesulfonamido)-2-pyridyl]amino]phenyl dihydrogenphosphate] — 2.2-fold lower, 0.55 mg/L (≈ 1.22 µM)
- COc1ccc(S(=O)(=O)Nc2cccnc2Nc2cccc(OP(=O)(O)O)c2)cc1 [Example 65, 3-[[3-(4-Methoxybenzenesulfonamido)-2-pyridyl]amino]phenyl dihydrogenphosphate] — 6-fold lower, 0.2 mg/L (≈ 0.443 µM)
- COc1ccc(S(=O)(=O)Nc2ccccc2Nc2ccc(O)cc2)cc1 [Example 67, N-[2-[(4-Hydroxyphenyl)amino]phenyl]-4-methoxybenzenesulfonamide] — within 1.5-fold, 1.4 mg/L (≈ 3.78 µM)
- COc1ccc(S(=O)(=O)Nc2cccnc2Nc2ccc(OC(=O)C(C)(C)C)cc2)cc1 [Example 68, 4-Methoxy-N-[2-[(4-pivaloyloxyphenyl)amino]-3-pyridyl]benzenesulfonamide] — 7.1-fold lower, 0.17 mg/L (≈ 0.373 µM)
- COc1ccc(S(=O)(=O)Nc2ccccc2NC(=O)c2cnccc2C)cc1 [Example 71, N-[2-(4-Methoxybenzenesulfonamido)phenyl]-4-methylnicotinamide] — 11-fold lower, 0.11 mg/L (≈ 0.277 µM)
- COc1ccc(S(=O)(=O)Nc2ccccc2NC(=O)c2ccncc2C)cc1 [Example 72, N-[2-(4-Methoxybenzenesulfonamido)phenyl]-3-methylisonicotinamide] — 100-fold lower, 0.012 mg/L (≈ 0.0302 µM)
- COc1ccc(S(=O)(=O)Nc2ccccc2Nc2ccccn2)cc1 [Example 76, 4-Methoxy-N-[2-[(2-pyridyl)amino]phenyl]benzenesulfonamide] — 9.2-fold lower, 0.13 mg/L (≈ 0.366 µM)
- COc1ccc(S(=O)(=O)Nc2ccccc2NC(=O)c2ccc(F)cc2)cc1 [Example 82, 4-Fluoro-N-[2-(4-methoxybenzenesulfonamido)phenyl]benzamide] — 46-fold lower, 0.026 mg/L (≈ 0.0649 µM)
- COc1ccc(S(=O)(=O)Nc2ccccc2NC(=O)c2ccco2)cc1 [Example 85, N-[2-(4-Methoxybenzenesulfonamido)phenyl]-2-furancarboxamide] — 120-fold lower, 0.01 mg/L (≈ 0.0269 µM)
- COc1ccc(S(=O)(=O)Nc2ccccc2NC(=O)c2ccncc2)cc1 [Example 88, N-[2-(4-Methoxybenzenesulfonamido)phenyl]isonicotinamide] — 120-fold lower, 0.01 mg/L (≈ 0.0261 µM)
- COc1ccc(S(=O)(=O)Nc2cccc(C)c2NC(=O)c2ccncc2)cc1 [Example 91, N-[2-(4-Methoxybenzenesulfonamido)-6-methylphenyl]isonicotinamide] — 15-fold lower, 0.079 mg/L (≈ 0.199 µM)
- COc1ccc(S(=O)(=O)Nc2ccccc2NC(=O)c2ccc(F)cc2Cl)cc1 [Example 94, 2-Chloro-4-fluoro-N-[2-(4-methoxybenzenesulfonamido)phenyl]benzamide] — 19-fold lower, 0.064 mg/L (≈ 0.147 µM)
- COc1ccc(S(=O)(=O)Nc2ccccc2NC(=O)c2ccccc2C)cc1 [Example 95, N-[2-(4-Methoxybenzenesulfonamido)phenyl]-2-methylbenzamide] — 27-fold lower, 0.045 mg/L (≈ 0.114 µM)
- COc1ccc(S(=O)(=O)Nc2ccccc2NC(=S)c2ccc(F)cc2)cc1 [Example 97, 4-Fluoro-N-[2-(4-methoxybenzenesulfonamido)phenyl]benzothioamide] — 8-fold lower, 0.15 mg/L (≈ 0.36 µM)
- COc1ccc(S(=O)(=O)Nc2ccc(F)cc2NC(=O)c2ccccc2)cc1 [Example 98, N-[5-fluoro-2-(4-methoxybenzenesulfonamido)phenyl]benzamide] — 15-fold lower, 0.079 mg/L (≈ 0.197 µM)
- COc1ccc(S(=O)(=O)Nc2ccccc2NC(C)=O)cc1 [Example 101, N-[2-(4-Methoxybenzenesulfonamido)phenyl]acetamide] — 12-fold lower, 0.1 mg/L (≈ 0.312 µM)
- CCNC(=O)Nc1ccccc1NS(=O)(=O)c1ccc(OC)cc1 [Example 104, N-[2-[(Ethylaminocarbonyl)amino]phenyl]-4-methoxybenzenesulfonamide] — 12-fold lower, 0.099 mg/L (≈ 0.283 µM)
- Nc1ccc(S(=O)(=O)Nc2ccccc2NC(=O)c2ccc(F)cc2)cc1 [Example 106, N-[2-(4-Aminobenzenesulfonamido)phenyl]-4-fluorobenzamide] — 4-fold lower, 0.3 mg/L (≈ 0.778 µM)

Same assay, conditions: KB, 72 h

`COc1ccc(S(=O)(=O)Nc2cccnc2Nc2ccc(OC(=O)N(C)C)cc2)cc1` [Example 52, N-[2-[(4-Dimethylcarbamoyloxyphenyl)amino]-3-pyridyl]-4-methoxybenzenesulfonamide] was tested, and the IC50 was 0.54 mg/L (≈ 1.22 µM).
